Results published in BindingDB's records for doi:10.1111/cbdd.12372 (Beijing University of Technology, 2015).

Biological target: T1, Casein kinase II subunit alpha [1-337] (Homo sapiens, UniProt P68400)
T1 construct: 1-337
Assay: Molecular Docking
From the text: The atomic co-ordinates of CK2α were retrieved from the Protein Data Bank [PDB ID: 3PE1] by deleting the heteroatoms except for water molecules within 6.5 of the ligand. Compounds 12, 23, 10, and 27 were constructed with the SYBYL 8.1 programa using compound CX-4945 as the template and were energy minimized with the Tripos force field. Four compounds were docked into the active site of CK2α using the molecular docking program Genetic Optimization for Ligand Docking (GOLD) version 3.0. The active site of CK2α was defined as a 6.5- -radius sphere centered on CX-4945, which comprise all complete amino acids there in. The crystal structure of CK2a in complex with compound CX-4945 was used to optimize docking parameters and evaluate the reliability of the docking methods. The standard default genetic algorithm (GA) parameters were used for all calculations and applied to predi

T1 sequence (P68400 1-337): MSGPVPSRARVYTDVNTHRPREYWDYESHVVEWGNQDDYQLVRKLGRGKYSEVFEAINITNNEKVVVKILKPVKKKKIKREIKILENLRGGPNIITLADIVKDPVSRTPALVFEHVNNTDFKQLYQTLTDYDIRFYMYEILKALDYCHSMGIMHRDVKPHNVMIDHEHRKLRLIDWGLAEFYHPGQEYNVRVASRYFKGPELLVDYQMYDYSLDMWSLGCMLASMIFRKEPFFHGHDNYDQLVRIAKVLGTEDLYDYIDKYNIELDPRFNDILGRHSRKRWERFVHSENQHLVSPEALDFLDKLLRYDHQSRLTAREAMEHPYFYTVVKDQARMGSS

IC50: > 2500 nM
Compound: N#Cc1ccc2c(c1)nc(-c1ccc(Cl)cc1)c1ccncc12 [5-(4-chlorophenyl)benzo[c]2,6-naphthyridine-8-carbonitrile (Compound 10)]
